Each block holds one compound with its values, some of them ahead of it.
Columns and labels:
Aurora kinase B [1] = molecular target: T1, Aurora kinase B (Homo sapiens, UniProt Q96GD4); assay: Inhibition of Aurora B (unknown origin) using Tamra-PKAtide as substrate by fluorescence polarization assay
[2] = AUC (0 to 6 hrs) in rat at 10 mg/kg, po; assay type: ADME, organism-based; design: time < 6 hr, dose 10 mg/kg, route oral; conditions: in vivo
Aurora kinase A = molecular target: T2, Aurora kinase A (Homo sapiens, UniProt O14965); assay: Inhibition of Aurora A (unknown origin) using Tamra-PKAtide as substrate by fluorescence polarization assay
T2 sequence (O14965 whole entry): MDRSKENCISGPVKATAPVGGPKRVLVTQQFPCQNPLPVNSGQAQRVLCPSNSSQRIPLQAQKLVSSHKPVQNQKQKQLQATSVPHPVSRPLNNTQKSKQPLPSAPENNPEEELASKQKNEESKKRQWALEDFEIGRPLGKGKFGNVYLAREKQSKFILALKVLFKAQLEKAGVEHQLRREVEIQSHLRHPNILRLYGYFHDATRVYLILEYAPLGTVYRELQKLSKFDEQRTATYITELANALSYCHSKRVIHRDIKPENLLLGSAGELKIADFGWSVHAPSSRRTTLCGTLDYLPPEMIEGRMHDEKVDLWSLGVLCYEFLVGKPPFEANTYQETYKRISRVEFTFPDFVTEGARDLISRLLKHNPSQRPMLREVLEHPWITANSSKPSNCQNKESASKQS

Aurora kinase B [3] = molecular target: T1, Aurora kinase B; assay: Inhibition of Aurora B in human HCT116 cells assessed as reduction in phosphorylation of Histone H3 at Ser10 residue incubated for 1 hr by Hoechst 33342 dye-based immunofluorescence microscopic method; assay type: cell-based
[4] = Apparent permeability from apical to basolateral side in human intestinal Caco2 cells; assay type: ADME, cell-based; conditions: Caco-2
[5] = AUC (0 to 24 hrs) in rat at 30 mg/kg, po; assay type: ADME, organism-based; design: time < 24 hr, dose 30 mg/kg, route oral; conditions: in vivo

T1 sequence (Q96GD4 whole entry): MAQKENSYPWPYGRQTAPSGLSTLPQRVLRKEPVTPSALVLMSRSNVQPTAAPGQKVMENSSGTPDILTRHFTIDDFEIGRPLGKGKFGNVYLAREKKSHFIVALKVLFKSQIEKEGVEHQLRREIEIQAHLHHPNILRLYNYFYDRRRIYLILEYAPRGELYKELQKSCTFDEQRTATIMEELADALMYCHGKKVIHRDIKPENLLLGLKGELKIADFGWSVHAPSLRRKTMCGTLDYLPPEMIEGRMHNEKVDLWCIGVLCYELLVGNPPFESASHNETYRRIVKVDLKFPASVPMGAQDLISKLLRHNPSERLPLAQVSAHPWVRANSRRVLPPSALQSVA

Compound: Cc1cn2c(-c3cn[nH]c3)cnc2c(Nc2cc(Cc3cccc(CO)n3)ns2)n1
IC50 (Aurora kinase B [1]): < 13 nM
IC50 (Aurora kinase A): < 4 nM
EC50 (Aurora kinase B [3]): 559 nM

Compound: Cc1cn2c(-c3cn[nH]c3)cnc2c(Nc2cc(Cn3cccc(C)c3=O)ns2)n1
IC50 (Aurora kinase B [1]): < 13 nM
IC50 (Aurora kinase A): < 4 nM
EC50 (Aurora kinase B [3]): 487 nM

Compound: Cc1cn2c(-c3cn[nH]c3)cnc2c(Nc2cc(Cn3ccnc3)ns2)n1
IC50 (Aurora kinase B [1]): < 13 nM
IC50 (Aurora kinase A): < 4 nM
EC50 (Aurora kinase B [3]): 370 nM

Compound: Cc1cccc(Cc2cc(Nc3nc(C)cn4c(-c5cn[nH]c5)cnc34)sn2)n1
IC50 (Aurora kinase B [1]): < 13 nM
AUC(0-t) at 6 h [2]: 7.7 µM·h
IC50 (Aurora kinase A): < 4 nM
EC50 (Aurora kinase B [3]): 88 nM

Compound: Cc1cn2c(-c3cn[nH]c3)cnc2c(Nc2cc(Cn3cccn3)ns2)n1
IC50 (Aurora kinase B [1]): < 13 nM
IC50 (Aurora kinase A): < 4 nM
EC50 (Aurora kinase B [3]): 184 nM

Compound: Cc1cn2c(-c3cn[nH]c3)cnc2c(Nc2cc(Cn3cccc3)ns2)n1
IC50 (Aurora kinase B [1]): < 13 nM
IC50 (Aurora kinase A): < 4 nM
EC50 (Aurora kinase B [3]): 530 nM

Compound: Cc1cn2c(-c3cn[nH]c3)cnc2c(Nc2cc(Cc3ncccn3)ns2)n1
IC50 (Aurora kinase B [1]): < 13 nM
AUC(0-t) at 6 h [2]: 1.8 µM·h
IC50 (Aurora kinase A): < 4 nM
EC50 (Aurora kinase B [3]): 203 nM

Compound: Cc1cn2c(-c3cn[nH]c3)cnc2c(Nc2cc(C(NC(C)(C)C)c3ccccn3)ns2)n1 (racemic)
IC50 (Aurora kinase B [1]): < 13 nM
AUC(0-t) at 6 h [2]: 1.6 µM·h
IC50 (Aurora kinase A): < 4 nM
EC50 (Aurora kinase B [3]): < 16 nM

Compound: Cc1cn2c(-c3cn[nH]c3)cnc2c(Nc2cc(C(c3ccccn3)N3CCC(F)CC3)ns2)n1 (racemic)
IC50 (Aurora kinase B [1]): < 13 nM
AUC(0-t) at 6 h [2]: 0.45 µM·h
IC50 (Aurora kinase A): < 4 nM
EC50 (Aurora kinase B [3]): 83 nM

Compound: Cc1cn2c(-c3cn[nH]c3)cnc2c(Nc2cc(C(c3ccccn3)N3CCCC3)ns2)n1 (racemic)
IC50 (Aurora kinase B [1]): < 13 nM
AUC(0-t) at 6 h [2]: 0.02 µM·h
IC50 (Aurora kinase A): < 4 nM
EC50 (Aurora kinase B [3]): < 16 nM

Compound: Cc1cn2c(-c3cn[nH]c3)cnc2c(Nc2cc(C(NC3CCCC3)c3ccccn3)ns2)n1 (racemic)
IC50 (Aurora kinase B [1]): < 13 nM
AUC(0-t) at 6 h [2]: 0.67 µM·h
IC50 (Aurora kinase A): < 4 nM
EC50 (Aurora kinase B [3]): < 16 nM

Compound: Cc1cn2c(-c3cn[nH]c3)cnc2c(Nc2cc(C(c3ccccn3)N3CCCCC3)ns2)n1 (racemic)
IC50 (Aurora kinase B [1]): < 13 nM
AUC(0-t) at 6 h [2]: 0.21 µM·h
IC50 (Aurora kinase A): < 4 nM
EC50 (Aurora kinase B [3]): < 16 nM

Compound: Cc1cn2c(-c3cn[nH]c3)cnc2c(Nc2cc(C(NC(C)(C)C)c3ccccn3)ns2)n1 (single isomer, unassigned; (-))
AUC(0-t) at 24 h [5]: 39 µM·h
IC50 (Aurora kinase B [1]): ≤ 13 nM
IC50 (Aurora kinase A): ≤ 4 nM
EC50 (Aurora kinase B [3]): 50 nM

Further lines, results first:

IC50 (Aurora kinase B [1]): < 13 nM
AUC(0-t) at 6 h [2]: 7.3 µM·h
IC50 (Aurora kinase A): < 4 nM
EC50 (Aurora kinase B [3]): 100 nM
Compound: Cc1cn2c(-c3cn[nH]c3)cnc2c(Nc2cc(Cc3cccc(F)n3)ns2)n1

IC50 (Aurora kinase B [1]): < 13 nM
AUC(0-t) at 6 h [2]: 0.15 µM·h
IC50 (Aurora kinase A): < 4 nM
EC50 (Aurora kinase B [3]): 208 nM
Papp A→B [4]: 4.3 ×10⁻⁶ cm/s
Compound: Cc1cn2c(-c3cn[nH]c3)cnc2c(Nc2cc(Cc3cnccn3)ns2)n1

IC50 (Aurora kinase B [1]): < 13 nM
AUC(0-t) at 6 h [2]: 3.4 µM·h
IC50 (Aurora kinase A): < 4 nM
EC50 (Aurora kinase B [3]): 475 nM
Compound: Cc1ccc(Cc2cc(Nc3nc(C)cn4c(-c5cn[nH]c5)cnc34)sn2)nc1

IC50 (Aurora kinase B [1]): < 13 nM
AUC(0-t) at 6 h [2]: 1.4 µM·h
IC50 (Aurora kinase A): < 4 nM
EC50 (Aurora kinase B [3]): 182 nM
Compound: Cc1cn2c(-c3cn[nH]c3)cnc2c(Nc2cc(Cc3ncccc3F)ns2)n1

IC50 (Aurora kinase B [1]): < 13 nM
AUC(0-t) at 6 h [2]: 5.5 µM·h
IC50 (Aurora kinase A): < 4 nM
EC50 (Aurora kinase B [3]): 486 nM
Compound: Cc1cn2c(-c3cn[nH]c3)cnc2c(Nc2cc(Cc3ccc(F)cn3)ns2)n1

IC50 (Aurora kinase B [1]): < 13 nM
IC50 (Aurora kinase A): < 4 nM
EC50 (Aurora kinase B [3]): > 1000 nM
Compound: Cc1cn2c(-c3cn[nH]c3)cnc2c(Nc2cc(Cc3cccnc3)ns2)n1

IC50 (Aurora kinase B [1]): < 13 nM
AUC(0-t) at 6 h [2]: 1.6 µM·h
IC50 (Aurora kinase A): < 4 nM
EC50 (Aurora kinase B [3]): 250 nM
Compound: Cc1cn2c(-c3cn[nH]c3)cnc2c(Nc2cc(Cc3ncccc3C)ns2)n1

IC50 (Aurora kinase B [1]): < 13 nM
AUC(0-t) at 6 h [2]: 4.6 µM·h
IC50 (Aurora kinase A): < 4 nM
EC50 (Aurora kinase B [3]): 376 nM
Compound: Cc1ccnc(Cc2cc(Nc3nc(C)cn4c(-c5cn[nH]c5)cnc34)sn2)c1

IC50 (Aurora kinase B [1]): < 13 nM
AUC(0-t) at 6 h [2]: 0.1 µM·h
IC50 (Aurora kinase A): < 4 nM
EC50 (Aurora kinase B [3]): 245 nM
Compound: Cc1cn2c(-c3cn[nH]c3)cnc2c(Nc2cc(Cc3cccc(C(=O)N4CCCCC4)n3)ns2)n1

IC50 (Aurora kinase B [1]): < 13 nM
AUC(0-t) at 6 h [2]: 5.5 µM·h
IC50 (Aurora kinase A): < 4 nM
EC50 (Aurora kinase B [3]): 356 nM
Compound: COc1cccc(Cc2cc(Nc3nc(C)cn4c(-c5cn[nH]c5)cnc34)sn2)n1

IC50 (Aurora kinase B [1]): < 13 nM
IC50 (Aurora kinase A): < 4 nM
EC50 (Aurora kinase B [3]): > 1000 nM
Compound: Cc1cn2c(-c3cn[nH]c3)cnc2c(Nc2cc(Cc3ccncc3)ns2)n1

IC50 (Aurora kinase B [1]): < 13 nM
AUC(0-t) at 6 h [2]: 3.9 µM·h
IC50 (Aurora kinase A): < 4 nM
EC50 (Aurora kinase B [3]): 170 nM
Compound: Cc1cn2c(-c3cn[nH]c3)cnc2c(Nc2cc(Cc3nccs3)ns2)n1

IC50 (Aurora kinase B [1]): < 13 nM
IC50 (Aurora kinase A): < 4 nM
EC50 (Aurora kinase B [3]): 289 nM
Compound: Cc1cn2c(-c3cn[nH]c3)cnc2c(Nc2cc(Cc3cccc(CN4CCCCC4)n3)ns2)n1
